What was measured:
[1] = tested on: bitransgenic EpA960/MCM mice; test: Tamoxifen-inducible heart-specific DM1 mouse model, mortality; type: in vivo; details: intraperitoneal mifepristone in saline, beginning 2 hours after first tamoxifen injection; 1-100 mg per kg body weight; mock-treated mice 80% died within 3 weeks
Experimental: In this model, EpA960 RNA is induced in the bitransgenic EpA960/MCM mice (F1 progeny) by 5 consecutive daily intraperitoneal injections of tamoxifen (20 mg/kg/d) leading to high mortality, conduction abnormalities, and systolic and diastolic dysfunction. […] Control or mock-treated mice are injected with saline solution alone. Each of the control and test groups typically includes 10-20 mice.
Typically, eighty percent of the mock-treated mice died within 3 weeks of RNA induction due to arrhythmias and/or contractile dysfunction. […] Description of experimental procedures can be found in, e.g., Wang et al., J Clin Invest. 2009; 119(12):3797-806.

[2] = percent of the daily dose; in one study (Kawai); cited from earlier work

## CC#C[C@]1(O)CC[C@H]2[C@@H]3CCC4=CC(=O)CCC4=C3[C@@H](c3ccc(N(C)C)cc3)C[C@@]21C [Mifepristone, 17-β-hydroxy-11-β-(4-dimethyl-aminophenyl)-17-α-(1-propynyl)-estra-4,9-dien-3-one]
[1]
  reduction of the mortality of bitransgenic mice: at least 10%
[2]
  daily dose excreted in the urine: less than 0.5%

Reference: patent publication US11103514B2, “Treatment of muscular dystrophy” (Corcept Therapeutics, Inc., priority 2010, dated 2021)
